Measured values reported in ChEMBL document CHEMBL5500390, “Overcoming Secondary Mutations of Type II Kinase Inhibitors” (J Med Chem, 2024).

How the values were obtained:
[1] = Inhibition of cell growth in mouse 32D cells transfected with FLT3 ITD mutant incubated for 2 days; type: functional; conditions: 48 h, time 2 day
[2] = Inhibition of cell growth in mouse 32D cells transfected with FLT3 ITD F691L mutant incubated for 2 days; type: functional; conditions: 48 h, time 2 day

Compound: CCCNc1nc(Nc2ccc(C#N)cc2)ncc1C#CCCCNC(=O)[C@H](C)N(C)C(=O)/C=C/CN(C)C [FF-10101]
- GI50 [1]: 1.9 nM
- GI50 [2]: 10 nM
